Data reported in PubChem BioAssay AID214 (DTP/NCI, 2004).
Results filed as inconclusive are left out.

System: B6C3F1 mice, colon carcinoma 38 s.c., T/C
Assay: NCI In Vivo Anticancer Drug Screen. Data for tumor model Colon Carcinoma 38 (subcutaneous) in B6C3F1 mice
Settings: endpoint: median tumor weight (est.), higher = larger tumour
Protocol: The antitumor activity of compounds was measured in mice bearing transplantable tumors. Survival or tumor size were measured and the results are expressed as the measurement made in the treated group (T) divided by the measurement made in the vehicle treated control group (C). The tumor model used in this assay is Colon Carcinoma 38 (subcutaneous) in B6C3F1 mice

[1] = dose: 100.0 mg/kg/injection, schedule: Q07DX002 (ip), vehicle: saline
[2] = dose: 400.0 mg/kg/injection, schedule: Q07DX002 (ip), vehicle: saline
[3] = dose: 1.56 mg/kg/injection, schedule: Q07DX002 (ip), vehicle: saline
[4] = dose: 3.12 mg/kg/injection, schedule: Q07DX002 (ip), vehicle: saline
[5] = dose: 4.0 mg/kg/injection, schedule: Q07DX002 (ip), vehicle: saline
[6] = dose: 50.0 mg/kg/injection, schedule: Q07DX002 (ip), vehicle: saline
[7] = dose: 800.0 mg/kg/injection, schedule: Q07DX002 (ip), vehicle: saline

CNC(=O)c1cccc2c(Nc3ccc(NS(C)(=O)=O)cc3OC)c3cccc(C)c3nc12
T/C (dose: 6.25 mg/kg/injection, schedule: Q07DX002 (ip), vehicle: water): 60 % of control
T/C (dose: 12.5 mg/kg/injection, schedule: Q07DX002 (ip), vehicle: water): 48 % of control
T/C (dose: 25.0 mg/kg/injection, schedule: Q07DX002 (ip), vehicle: water): 17 % of control
T/C (dose: 50.0 mg/kg/injection, schedule: Q07DX002 (ip), vehicle: water): 4 % of control

C=C(C(=O)O)C(N)C(=O)O (stereo not given)
T/C (dose: 150.0 mg/kg/injection, schedule: Q07DX002 (ip), vehicle: saline): 56 % of control
T/C (dose: 300.0 mg/kg/injection, schedule: Q07DX002 (ip), vehicle: saline): 94 % of control

O=C(O)Cc1cccc2c(=O)cc(C3CCCCC3)oc12
T/C [1]: 90 % of control
T/C [2]: 82 % of control

Cc1cc(NCCCN(C)C)c2ccc3c(ccc4c(NCCCN(C)C)cc(C)nc43)c2n1
T/C (dose: 0.78 mg/kg/injection, schedule: Q07DX002 (ip), vehicle: saline): 97 % of control
T/C [3]: 91 % of control
T/C [4]: 115 % of control
T/C (dose: 6.25 mg/kg/injection, schedule: Q07DX002 (ip), vehicle: saline): 100 % of control

CCCCCc1cc(O)c2c(c1)OC(C)(C)[C@@H]1CCC(C)=C[C@@H]21
T/C (dose: 200.0 mg/kg/injection, schedule: Q07DX002 (ip), vehicle: other): 81 % of control
T/C (dose: 400.0 mg/kg/injection, schedule: Q07DX002 (ip), vehicle: other): 98 % of control

N[C@@H](Cc1ccc(N(CCCl)CCCl)cc1)C(=O)O
T/C (dose: 1.2 mg/kg/injection, schedule: Q01DX006 (ip), vehicle: saline): 35 % of control
T/C (dose: 1.8 mg/kg/injection, schedule: Q01DX006 (ip), vehicle: saline): 62 % of control
T/C (dose: 2.7 mg/kg/injection, schedule: Q01DX006 (ip), vehicle: saline): 38 % of control
T/C (dose: 4.0 mg/kg/injection, schedule: Q01DX006 (ip), vehicle: saline): 50 % of control

C=C1COC(O)(C2OCOC(C3CC(=O)NC(=O)C3)C2O)C1C (stereo not given)
T/C (dose: 31.25 micrograms/kg/injection, schedule: Q07DX002 (ip), vehicle: water): 119 % of control

O=C(O)c1cc(Cc2ccc(O)c(C(=O)O)c2)ccc1O (tested in a mixture with another compound)
T/C (dose: 25.0 mg/kg/injection, schedule: Q07DX002 (ip), vehicle: Klucel (hydroxypropylcellulose) (HPC)): 71 % of control
T/C (dose: 50.0 mg/kg/injection, schedule: Q07DX002 (ip), vehicle: Klucel (hydroxypropylcellulose) (HPC)): 78 % of control
T/C (dose: 100.0 mg/kg/injection, schedule: Q07DX002 (ip), vehicle: Klucel (hydroxypropylcellulose) (HPC)): 70 % of control
T/C (dose: 200.0 mg/kg/injection, schedule: Q07DX002 (ip), vehicle: Klucel (hydroxypropylcellulose) (HPC)): 115 % of control
T/C (dose: 400.0 mg/kg/injection, schedule: Q07DX002 (ip), vehicle: Klucel (hydroxypropylcellulose) (HPC)): 63 % of control

CSCS(=O)C[C@H](CO)NC(=O)/C=C/c1c(C)[nH]c(=O)[nH]c1=O (stereo not given in full)
T/C (dose: 2.0 mg/kg/injection, schedule: Q07DX002 (ip), vehicle: saline): 74 % of control
T/C [5]: 66 % of control

N=c1ccn2c(n1)OC1C(O)C(CO)OC12 (stereo not given)
T/C (dose: 100.0 mg/kg/injection, schedule: Q07DX003 (ip), vehicle: saline): 90 % of control
T/C (dose: 200.0 mg/kg/injection, schedule: Q07DX003 (ip), vehicle: saline): 98 % of control
T/C (dose: 400.0 mg/kg/injection, schedule: Q07DX003 (ip), vehicle: saline): 92 % of control
T/C (dose: 800.0 mg/kg/injection, schedule: Q07DX003 (ip), vehicle: saline): 61 % of control
T/C (dose: 1600.0 mg/kg/injection, schedule: Q07DX003 (ip), vehicle: saline): 40 % of control

CO[C@H]1C[C@](C)(O)Cc2cc3c(c(O)c21)C(=O)c1c(O)cc2c(c1C3=O)O[C@@H]1O[C@@]2(C)[C@H](O)[C@@H](N(C)C)[C@@H]1O
T/C (dose: 12.5 mg/kg/injection, schedule: Q07DX002 (ip), vehicle: other): 124 % of control
T/C (dose: 25.0 mg/kg/injection, schedule: Q07DX002 (ip), vehicle: other): 102 % of control
T/C (dose: 50.0 mg/kg/injection, schedule: Q07DX002 (ip), vehicle: other): 56 % of control
T/C (dose: 100.0 mg/kg/injection, schedule: Q07DX002 (ip), vehicle: other): 19 % of control

CCN(CC)CCNc1ccc(C)c2sc3ccccc3c(=O)c12
T/C (dose: 50.0 mg/kg/injection, schedule: Q07DX002 (ip), vehicle: suspension in saline): 66 % of control
T/C (dose: 100.0 mg/kg/injection, schedule: Q07DX002 (ip), vehicle: suspension in saline): 42 % of control
T/C (dose: 200.0 mg/kg/injection, schedule: Q07DX002 (ip), vehicle: suspension in saline): 2 % of control

COc1ccccc1CC(=O)O
T/C (dose: 75.0 mg/kg/injection, schedule: Q07DX002 (ip), vehicle: saline with Tween-80): 78 % of control
T/C (dose: 150.0 mg/kg/injection, schedule: Q07DX002 (ip), vehicle: saline with Tween-80): 107 % of control
T/C (dose: 300.0 mg/kg/injection, schedule: Q07DX002 (ip), vehicle: saline with Tween-80): 98 % of control

NC(CCC(=O)NC(CS)C(=O)NCC(=O)O)C(=O)O (stereo not given)
T/C [6]: 89 % of control
T/C [1]: 87 % of control
T/C (dose: 200.0 mg/kg/injection, schedule: Q07DX002 (ip), vehicle: saline): 102 % of control
T/C [2]: 88 % of control
T/C [7]: 113 % of control

NC(=O)c1ccc[n+](Cc2c(Cl)cccc2Cl)c1
T/C (dose: 25.0 mg/kg/injection, schedule: Q07DX002 (ip), vehicle: saline): 86 % of control
T/C [6]: 94 % of control

NC(Cn1ccc(=O)c(O)c1)C(=O)O (stereo not given)
T/C [1]: 97 % of control
T/C [2]: 54 % of control
T/C [7]: 156 % of control

CN(C)C1C(=O)C(C(=O)NP(=O)(NCCCO)N(CCCl)CCCl)=C(O)C2(O)C(=O)C3=C(O)c4c(O)cccc4C(C)(O)C3CC12 (stereo not given)
T/C (dose: 100.0 mg/kg/injection, schedule: Q07DX002 (ip), vehicle: saline with Tween-80): 176 % of control
T/C (dose: 200.0 mg/kg/injection, schedule: Q07DX002 (ip), vehicle: saline with Tween-80): 42 % of control

Cc1c(N)nc([C@H](CC(N)=O)NC[C@H](N)C(N)=O)nc1C(=O)N[C@H](C(=O)N[C@H](C)[C@@H](O)CC(=O)N[C@H](C(=O)NC(O[C@@H]1O[C@@H](C)[C@@H](N)[C@@H](O)[C@H]1O)C(O)c1nc(-c2nc(C(=O)NCCCCN)cs2)cs1)[C@@H](C)O)[C@@H](O[C@@H]1O[C@@H](CO)[C@@H](O)[C@H](O)[C@@H]1O[C@H]1O[C@H](CO)[C@@H](O)[C@H](OC(N)=O)[C@@H]1O)c1c[nH]cn1 (stereo not given in full)
T/C [5]: 54 % of control
T/C (dose: 8.0 mg/kg/injection, schedule: Q07DX002 (ip), vehicle: saline): 35 % of control
T/C (dose: 16.0 mg/kg/injection, schedule: Q07DX002 (ip), vehicle: saline): 13 % of control
T/C (dose: 32.0 mg/kg/injection, schedule: Q07DX002 (ip), vehicle: saline): 25 % of control
T/C (dose: 64.0 mg/kg/injection, schedule: Q07DX002 (ip), vehicle: saline): 9 % of control

[Cl][Hg][Cl]
T/C [3]: 80 % of control
T/C [4]: 124 % of control
